Measurements: patent US20050049204A1, “Compounds for the treatment of flaviviridae infections” (priority 2003, published 2005)
Read-outs that look alike come from different tables or passages of the source.

Key:
[1] = tested on: HCV-replicon RNA-containing Huh7 cells (HCV RNA); assay: HCV replicon assay: HCV RNA quantified by Q-RT-PCR after 96 h of compound exposure; assay type: cell-based, hepatitis C virus (HCV); conditions: for log reduction at 10 µM: read-out: Corrected HCV RNA log10 reduction at 10 μM; for EC90: read-out: Corrected HCV RNA EC90; for specific inhibition of the replicon: RNR inhibitors tested
Procedure: (§1) Incubation times differed according to the type of experiment.

[2] = tested on: rRNA in HCV-replicon RNA-containing Huh7 cells; assay: rRNA levels in HCV replicon cells (cellular toxicity), Q-RT-PCR after 96 h; conditions: 100 μM
Procedure: HCV replicon cells were seeded in the presence of test compound at approximately 10^3 cells per well in a 96-well plate and incubated for 96 hours. rRNA and HCV RNA were quantified by Q-RT-PCR. ●: HCV RNA levels; ◯: rRNA levels; ▾: HCV RNA levels after correction (=subtraction of rRNA) for cellular toxicity. […] The plots shown are the mean results of at least three independent experiments. EC90 values as given in Table 1 are read from the HCV curves corrected for cellular toxicity.
HCV-replicon RNA-containing Huh7 cells (Clone A cells; Apath, LLC, St. Louis, Mo.) were kept in exponential growth in DMEM media (high glucose, no pyruvate) containing 10% fetal bovine serum, 1× non-essential amino acids (100 units/ml), penicillin-streptomycin (100 μg/ml), glutamine (0.292 mg/ml), and G418 (1,000 μg/ml). Antiviral assays were performed in the same medium without G418. […] Cells were seeded in a 6-well plate at 10^5 cells per well. Candidate antiviral compounds were tested as described (Stuyver, et al. “A ribonucleoside analogue that blocks the replication of bovine viral diarrhea and hepatitis C viruses in culture” Antimicrob. Agents Chemother., January 2003, 47 (1), 244-254). Incubation times differed according to the type of experiment. At the end of the incubation step, cells were counted using the trypan-blue exclusion method, and total cellular RNA was isolated (Rneasy 96 kit, Qiagen, CA). Replicon RNA and an internal control (TaqMan Ribosomal RNA Control Reagents, Applied Biosystems, CA) were amplified in a single-step, multiplex RT-PCR protocol, as recommended by the manufacturer and as described (Stuyver, et al. “A ribonucleoside analogue that blocks the replication of bovine viral diarrhea and hepatitis C viruses in culture” Antimicrob. Agents Chemother., January 2003, 47 (1), 244-254).
Replicon cells were incubated in the absence or presence of these anti-metabolites for 96 hours, after which intracellular rRNA and HCV RNA levels were quantified (Table 1).

[3] = tested on: HCV replicon RNA in Huh7 cells; assay: HCV RNA levels in replicon cells over a 7-day period; assay type: cell-based, hepatitis C virus (HCV); conditions: 100 μM, 7-day period
[4] = tested on: HCV replicon RNA in Huh7 cells; assay: Reversal studies with natural nucleosides: HCV RNA; assay type: cell-based, hepatitis C virus (HCV); conditions: for log10 reduction HCV: no nucleoside
Procedure: as §1
(§2) Cells were incubated with the test compound and, simultaneously, the natural ribo- or 2′-deoxy nucleosides (adenosine, guanosine (G), cytidine (C), uridine (U), 2′-deoxycytidine (dC), 2′-deoxyuridine, thymidine, 2′-deoxyguanosine (dG), and 2′-deoxyadenosine) (Table 2).

[5] = tested on: rRNA in HCV replicon Huh7 cells; assay: Reversal studies with natural nucleosides: rRNA; assay type: cell-based; conditions: for log10 reduction rRNA: no nucleoside
Procedure: as §1, §2

[6] = tested on: HCV replicon-containing Huh7 cell line; assay: Dynamics of replicon cell growth (cell count) over a 7-day period; conditions: 100 μM, 7-day period
[7] = Hepatitis C virus, Huh-7, 96 h, read-out: Corrected HCV RNA log10 reduction at 100 μM
[8] = Hepatitis C virus, Huh-7, 10 μM, 96 h, corrected by subtraction of rRNA
[9] = Hepatitis C virus, Huh-7, 96 h, read from HCV curves corrected for rRNA reduction
[10] = 10 μM, 96 h, corrected by subtraction of rRNA
[11] = 100 μM, 96 h, corrected by subtraction of rRNA
[12] = 96 h, read from HCV curves corrected for rRNA reduction

For `NC(=O)NO` [Hydroxy Urea, hydroxy urea], the log reduction at 100 µM [1, 7] was -0.08 ± 0.16, the log reduction at 10 µM [1, 8] was 0.06 ± 0.04 and the EC90 [1, 9] was over 100 µM. The “specific inhibition of the replicon” value [1] was “none” and the “Log10 RNA reduction (100 μM) rRNA” value [2] was 0.25 ± 0.20 log10.

`Nc1ccn(C2OC(CO)C(O)C2=CF)c(=O)n1` (centres unmarked) [Tezacytabine, tezacytabine] was tested, and the “Corrected HCV RNA log10 reduction at 10 μM” value [1, 10] was 0.63 ± 0.07 log10, the “Log10 RNA reduction (100 μM) HCV” value ([1]; 100 μM, 96 h) was 1.59 ± 0.08 log10 and the “Corrected HCV RNA log10 reduction at 100 μM” value [1, 11] was −0.19 ± 0.49 log10. The EC90 [1, 12] was over 100 µM, the “specific inhibition of the replicon” value [1] was “none” and the “Log10 RNA reduction (100 μM) rRNA” value [2] was 1.78 ± 0.69 log10.

`O=c1[nH]c(=O)n([C@H]2C[C@H](O)[C@@H](CO)O2)cc1F` [2′-deoxy-5FU, 2′-deoxy-5-fluorouridine] was tested, and the “Corrected HCV RNA log10 reduction at 10 μM” value [1, 10] was 0.23 ± 0.05 log10, the log reduction at 100 µM [1, 7] was 0.04 ± 0.25 and the EC90 [1, 9] was over 100 µM. The “Log10 RNA reduction (100 μM) rRNA” value [2] was 0.73 ± 0.35 log10.

With `Nc1n[nH]c(N)n1` [Guanazole, guanazole] the “Log10 RNA reduction (100 μM) HCV” value ([1]; 100 μM, 96 h) was 0.25 ± 0.11 log10, the “Corrected HCV RNA log10 reduction at 100 μM” value [1, 11] was 0.32 ± 0.08 log10 and the EC90 ([1]; Hepatitis C virus, Huh-7, 96 h) was over 100 µM. For the same compound, the log reduction at 10 µM ([1]; Hepatitis C virus, Huh-7, 96 h) was 0.05 ± 0.08, the “specific inhibition of the replicon” value [1] was “none” and the “Log10 RNA reduction (100 μM) rRNA” value [2] was 0.07 ± 0.03 log10.

For `C[C@@]1(O)[C@H](O)[C@@H](CO)O[C@H]1n1ccc(N)nc1=O` [2′C—CH3—C, 2′-C-methyl-cytidine], the log reduction at 10 µM [1, 8] was 1, the log reduction at 100 µM ([1]; Hepatitis C virus, Huh-7, 100 μM, 96 h, corrected by subtraction of rRNA, read-out: Corrected HCV RNA log10 reduction at 100 μM) was 2.21 ± 0.47 and the log reduction at 100 µM ([1]; Hepatitis C virus, Huh-7, 100 μM, 96 h, read-out: Log10 RNA reduction (100 μM) HCV) was 2.2 ± 0.52. The EC90 [1, 9] was 10.4 µM, the “Log10 RNA reduction (100 μM) rRNA” value [2] was −0.02 ± 0.05 log10 and the “reducing the HCV RNA levels” value [3] was “very potent”. The “log10 reduction HCV including natural nucleoside” value ([4]; 25 μM + C at 50 μM) was 0.48 ± 0.02 log10, the “log10 reduction rRNA including natural nucleoside” value ([5]; 25 μM + C at 50 μM) was 0.14 ± 0.04 log10 and the “log10 reduction rRNA” value ([5]; 25 μM) was −0.01 ± 0.02 log10. For the same compound, the “effect on cell proliferation” value [6] was “no”.

For `COc1c(C)c2c(c(O)c1CCOP(=O)(O)CP(=O)(O)OC[C@H]1O[C@@H](n3cnc4c(N)ncnc43)[C@H](O)[C@@H]1O)C(=O)OC2` [Compound C2-MAD], the “Corrected HCV RNA log10 reduction at 10 μM” value [1, 10] was 0.36 ± 0.21 log10, the “Log10 RNA reduction (100 μM) HCV” value ([1]; 100 μM, 96 h) was 1.09 ± 0.21 log10 and the “Corrected HCV RNA log10 reduction at 100 μM” value [1, 11] was 0.08 ± 0.24 log10. The EC90 [1, 12] was over 100 µM and the “Log10 RNA reduction (100 μM) rRNA” value [2] was 1.00 ± 0.15 log10.

For `NC(=O)c1ncn([C@@H]2O[C@H](CO)[C@@H](O)[C@H]2O)c1O` [Mizoribine], the “Corrected HCV RNA log10 reduction at 10 μM” value [1, 10] was −0.14 ± 0.12 log10, the log reduction at 100 µM [1, 7] was 0.08 ± 0.82 and the EC90 [1, 9] was over 100 µM. For the same compound, the “Log10 RNA reduction (100 μM) rRNA” value [2] was 0.21 ± 0.50 log10.

In the case of Cyclopentyl-cytosine [CP-C], the “Corrected HCV RNA log10 reduction at 10 μM” value [1, 10] is reported as 0.64 ± 0.10 log10, the “Log10 RNA reduction (100 μM) HCV” value ([1]; 100 μM, 96 h) is reported as 1.97 ± 0.38 log10 and the “Corrected HCV RNA log10 reduction at 100 μM” value [1, 11] is reported as 1.06 ± 0.26 log10. The EC90 [1, 12] was 25 µM, the “Log10 RNA reduction (100 μM) rRNA” value [2] was 0.91 ± 0.13 log10 and the “log10 reduction HCV including natural nucleoside” value ([4]; 20 μM + C at 50 μM) was 0.11 ± 0.01 log10. The “log10 reduction HCV” value ([4]; 20 μM) was 1.80 ± 0.07 log10, the “log10 reduction HCV including natural nucleoside” value ([4]; 100 μM + C at 50 μM) was 0.32 ± 0.11 log10 and the “log10 reduction HCV” value ([4]; 100 μM) was 2.32 ± 0.08 log10. The “log10 reduction rRNA including natural nucleoside” value ([5]; 20 μM + C at 50 μM) was 0.02 ± 0.00 log10, the “log10 reduction rRNA” value ([5]; 20 μM) was 0.87 ± 0.08 log10 and the “log10 reduction rRNA including natural nucleoside” value ([5]; 100 μM + C at 50 μM) was 0.17 ± 0.01 log10. The “log10 reduction rRNA” value ([5]; 100 μM) was 1.21 ± 0.02 log10.
